Data taken from patent publication US11596691B2, “Photoswitchable HDAC inhibitors” (The General Hospital Corporation, priority 2013, dated 2023).
Entries after “also recorded” stand apart in the source; their conditions may differ.

Tests used:
Absorbance spectra = format: physicochemical
Source text: Compounds were profiled physically to determine absorbance spectra, solubility and kinetics of photo-isomerization kinetics and thermal relaxation (where applicable). The compounds were then profiled biochemically to determine the HDAC inhibitory profile as a function of light exposure. Finally, selected compounds were profiled in cellular assays for the ability to induce hyperacetylation of histone proteins, which represents a biomarker readout for HDAC inhibition.
Compounds studied include those analogs with a push-pull azobenzene system (BG14, BG18, BG47, BG48 and BG49).
Physical characterization of the prototype inhibitors in PBS confirmed that all compounds strongly absorb light in the blue spectrum with maximum absorbance around 470 nm.

HDAC3 = target: T1, HDAC3 (Homo sapiens, UniProt O15379); experiment: Light-dependent HDAC3 biochemical assay (acetyl-lysine tripeptide based on acH4K12); conditions: for inhibition of HDAC3 enzymatic activity: in the presence and absence of light
T1 construct: 40 μL of a stock solution of full-length HDAC protein at three times the desired final concentration
Method: (§1) Compounds were added to white 96-well plates containing 40 μL of HDAC assay buffer (50 mM HEPES, 100 mM KCl, 0.05% BSA, 0.001% Tween-20 at pH 7.4) by pin transfer. To the assay plate was added 40 μL of a stock solution of full-length HDAC protein at three times the desired final concentration. After addition the plate was centrifuged to mix the solution while removing air bubbles. […] After which, reads were taken every 15 minutes to follow the fluorogenic release of 7-amino-4-methylcoumarin from the substrate resulting from deacetylase and trypsin enzymatic activity. In between reads the LED excitation device was reaffixed on top of the plate ensuring maximum cis-isomer population. In parallel to this, a second plate was prepared identically and measured for activity but this plate was not excited by our device but rather was covered to prevent any ambient light from shining on the plate. Replicate pairs of plates were performed.

MCF7 cells = experiment: L1000 gene expression profiling / GSEA in MCF7 cells; format: cell-based
Method: In order to gain more quantitative insights into the specific genes regulated by the presented inhibitors, and to provide further evidence that the BG inhibitors elicit biological responses similar to the closely related, but light-independent HDAC inhibitors a high-throughput gene expression analysis was performed. Expression profiling was performed in quadruplicate using the L1000™ platform (Genometry, Inc.). Specifically MCF7 cells were treated with various compounds and the transcriptional changes were measured as a function of compound concentration, light exposure intensity, and treatment duration relative to the reference HDAC inhibitors CI994 and “Merck60”.
To assess BG14's nature as an HDAC inhibitor beyond its ability to modulate HDAC and histone acetylation levels, Gene Set Enrichment Analysis (GSEA) was performed between BG14 (max concentration, max amount of light) and the known HDAC inhibitor CI-994 (the same concentration) (FIG. 15D). Very remarkably, the Normalized Enrichment Score (NES) of 3.25 indicates a very high degree of similarity between both expression profiles. The identified 177 On-Target Gene List, (landmark genes regulated by light-dependent BG14_trans only), as well as the 68 Off-Target list (landmark genes regulated in absence of light by BG14_cis) were compared to the list of genes regulated by CI-994. […]

[1] = tested on: acetylation of histone H3 Lysine 9 (H3K9Ac) in MCF7 cells; experiment: H3K9Ac pharmacodynamic marker in MCF7 cells; format: cell-based; conditions: for histone acetylation above background: in the absence of light; for acetylation of H3K9 relative to vehicle control: in the presence of light
Source text: BG14, BG47 and BG48 were profiled in cell culture to assess cellular activity using acetylation of histone H3 Lysine 9 (H3K9Ac) as a pharmacodynamic marker for HDAC inhibition. […] H3K9 acetylation levels directly correlated with light exposure.

HDAC1-3 = experiment: HDAC IC50 assay with and without 470 nm light exposure; format: biochemical; conditions: for change of inhibitory activity against HDAC1-3 on light exposure: with vs without exposure (including 1 hr pre-exposure) to 470 nm light
Method: as §1
The LED arrays were connected to a micro controller that was programmed to control individual LEDs, LED rows, or LED columns within the array. The controller allowed for modulation of LED intensity by controlling the on/off timing (PWM) or by directly controlling the supplied voltage. The temporal control was <10 ms. The LEDs and microcontroller were powered optionally by a power supply unit connected to a standard 110 V outlet or by a battery-pack, which allowed for use in a cell culture incubator. The LED array was used as lid to illuminate plates from the top and as a stage to illuminate the plates from the bottom, as required by the experimental setup.

HDAC enzyme = experiment: HDAC inhibitory activity as a function of light exposure time; format: biochemical; conditions: continuous 470 nm light, measured in 15 min intervals
Method: The activation of the photoswitchable inhibitors depends on the light energy and the exposure time (as predicted by our model). […] Following pre-incubation of the HDAC enzyme and respective small molecule inhibitor, the enzyme substrate was added and the assay plate was continuously exposed to light (470 nm). Inhibitory activities were measured in 15 min intervals.

HDAC1 = target: T2, HDAC1 (Homo sapiens, UniProt Q13547); experiment: Half-life experiment (residence time on HDAC1 after light exposure); format: biochemical; conditions: 520 nM, 1 hour 470 nm light, then dark 4, 8 and 17 hours; estimated
T2 construct: 40 μL of a stock solution of full-length HDAC protein at three times the desired final concentration
Method: To directly compare the residence time versus isoform relaxation time BG47 and BG48 were incubated with HDAC1 in alternating columns of a white 96-well plate. Columns 1 and 2 were exposed to 470 nm light (22.9V/0.2 A; 0.1 A per column) from LEDs using our excitation device 17 hours before the assay for 1 hour, resulting in 16 hours of relaxation time before the assay. Columns 3 and 4 were exposed to light 9 hours before the assay for 1 hour providing an 8 hour relaxation period and columns 5 and 6 were exposed 5 hours before the assay providing a 4 hour relaxation time point while columns 11 and 12 were used as controls with no pre-exposure. After the completion of the pre-exposure and relaxation time points a stock solution of trypsin and substrate was added to the plate. The plate was centrifuged and read using a Tecan Safire II every 2 minutes while keeping the plate inside the instrument, eliminating exposure to ambient light.
Both compounds were incubated at 520 nM with HDAC1, exposed for 1 hour of […] light and stored in the dark for 4, 8 and 17 hours, respectively, followed by addition of enzyme substrate. The activity was monitored in reference to unexposed compound with continuous readout measured over 2 hours, estimating a residence half-live of 12-24 hours.

[2] = tested on: acetylation of histone H3 Lysine 9; experiment: Acetylation of histone H3 Lysine 9 in live cells (biomarker for HDAC inhibition); format: cell-based; conditions: immunofluorescent staining, with/without light
Source text: The activity of the compounds in live cells was validated using acetylation of histone H3 Lysine 9 as a biomarker for HDAC inhibition.

[3] = Thermal relaxation (cis-to-trans) half-life measurement; conditions: aqueous vs chloroform

T1 sequence (O15379 whole entry): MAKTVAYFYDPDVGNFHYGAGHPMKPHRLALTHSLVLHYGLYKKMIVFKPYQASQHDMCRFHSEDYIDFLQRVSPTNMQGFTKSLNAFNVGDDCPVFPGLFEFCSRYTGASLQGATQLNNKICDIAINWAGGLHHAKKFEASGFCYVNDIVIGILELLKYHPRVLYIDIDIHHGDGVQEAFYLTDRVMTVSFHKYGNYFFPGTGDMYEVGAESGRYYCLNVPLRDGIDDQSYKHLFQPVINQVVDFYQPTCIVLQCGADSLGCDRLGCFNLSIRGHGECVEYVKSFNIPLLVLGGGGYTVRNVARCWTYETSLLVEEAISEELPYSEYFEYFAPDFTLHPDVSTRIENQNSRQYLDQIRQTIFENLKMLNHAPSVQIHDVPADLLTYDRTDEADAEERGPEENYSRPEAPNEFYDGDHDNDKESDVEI
T1 sequence (Q9Y618 395-489 partner limits assumed): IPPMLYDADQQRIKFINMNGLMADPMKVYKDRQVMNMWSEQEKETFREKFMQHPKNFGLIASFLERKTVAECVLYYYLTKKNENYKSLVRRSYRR
T2 sequence (Q13547 whole entry): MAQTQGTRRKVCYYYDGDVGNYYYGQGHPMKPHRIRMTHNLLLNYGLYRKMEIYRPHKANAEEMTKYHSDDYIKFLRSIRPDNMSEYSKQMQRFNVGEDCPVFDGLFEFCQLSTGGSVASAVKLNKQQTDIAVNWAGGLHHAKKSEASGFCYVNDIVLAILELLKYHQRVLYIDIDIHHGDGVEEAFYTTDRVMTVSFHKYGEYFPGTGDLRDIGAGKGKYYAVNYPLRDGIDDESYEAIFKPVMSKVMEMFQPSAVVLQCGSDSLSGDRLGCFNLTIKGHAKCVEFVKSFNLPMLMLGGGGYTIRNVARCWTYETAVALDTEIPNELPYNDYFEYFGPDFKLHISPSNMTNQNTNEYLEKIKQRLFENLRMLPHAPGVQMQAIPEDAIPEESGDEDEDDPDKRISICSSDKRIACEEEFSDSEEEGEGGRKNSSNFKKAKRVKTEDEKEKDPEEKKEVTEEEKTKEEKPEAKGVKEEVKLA

For `Nc1ccccc1NC(=O)c1ccc(N=Nc2ccccc2)cc1` [BG12, N-(2-aminophenyl)-4-(phenyldiazenyl)benzamide], the absorbance range (Absorbance spectra) was “maximally absorbs in the UV range”.

In the case of `CN(C)c1ccc(N=Nc2ccc(C(=O)Nc3ccccc3N)cc2)cc1` [BG14, N-(2-aminophenyl)-4-((4-(dimethylamino)phenyl)diazenyl)benzamide], the “inhibition of HDAC3 enzymatic activity” value (HDAC3) was “potent light-dependent inhibitory activity; also recorded: also inhibits HDAC3”, the “dependence of HDAC3 inhibitory activity on light exposure” value (HDAC3; varying average light exposure) was “directly proportional to the average light exposure” and the “transcript levels of L1000 landmark genes” value (MCF7 cells; MCF7, absence of light) was “did not show any significant changes in transcript levels”. For the same molecule, the “expression levels of landmark genes” value (MCF7 cells; MCF7, increasing amounts of light) was “significant changes of expression levels of specific landmark genes”, the “histone acetylation above background” value [1] was “No significant histone acetylation above background” and the “acetylation of H3K9 relative to vehicle control” value [1] was “strongly induced acetylation of H3K9”. The “increase of H3K9 acetylation compared among the inhibitors” value ([1]; with light) was “strongest increase of H3K9 acetylation”, the absorbance range (Absorbance spectra) was “absorbed in the blue range of the visible spectrum” and the “change of inhibitory activity against HDAC1-3 on light exposure” value (shortened to “change of inhibitory activity”) (HDAC1-3) was “Significantly increased activity”. For the same molecule, the “activity change as a function of light exposure time” value (“activity change as a function” for short) (HDAC enzyme) was “increased activity with increased exposure time”.

For `CN(C)c1ccc(N=Nc2ccc(C(=O)Nc3ccccc3O)cc2)cc1` [BG18, 4-((4-(dimethylamino)phenyl)diazenyl)-N-(2-hydroxyphenyl)benzamides], the absorbance range (Absorbance spectra) was “absorbed in the blue range of the visible spectrum” and the “change of inhibitory activity” value (HDAC1-3) was “Significantly increased activity”.

In the case of `Nc1ccccc1NC(=O)c1ccc(N=Nc2ccc(C(=O)O)cc2)cc1` [BG19, 4-((4-((2-aminophenyl)carbamoyl)phenyl)diazenyl)benzoic Acid], the absorbance range (Absorbance spectra) was “maximally absorbs in the UV range”.

For `CN(C)c1ccc(N=Nc2ccc(C(=O)Nc3cc(-c4cccs4)ccc3N)cc2)cc1` [BG47, N-(2-amino-5-(thiophen-2-yl)phenyl)-4-((4-(dimethylamino)phenyl)diazenyl)benzamide], the “inhibition of HDAC3 enzymatic activity” value (HDAC3) was “did not inhibit HDAC3 in the presence and absence of light”, the “histone acetylation above background” value [1] was “No significant histone acetylation above background” and the “acetylation of H3K9 relative to vehicle control” value [1] was “strongly induced acetylation of H3K9”. The residence time (HDAC1) was 720 to 1440 min, the absorbance range (Absorbance spectra) was “absorbed in the blue range of the visible spectrum” and the HDAC isoform selectivity (HDAC1-3) was “HDAC1/2-selective”. For the same molecule, the “change of inhibitory activity” value (HDAC1-3) was “Significantly increased activity”.

In the case of `CN(C)c1ccc(N=Nc2ccc(C(=O)Nc3cc(-c4ccccc4)ccc3N)cc2)cc1` [BG48, N-(4-amino-[1,1′-biphenyl]-3-yl)-4-((4-(dimethylamino)phenyl)diazenyl)benzamide], the “inhibition of HDAC3 enzymatic activity” value (HDAC3) was “did not inhibit HDAC3 in the presence and absence of light”, the “histone acetylation above background” value [1] was “No significant histone acetylation above background” and the “acetylation of H3K9 relative to vehicle control” value [1] was “strongly induced acetylation of H3K9”. For the same molecule, the residence time (HDAC1) was 720 to 1440 min, the absorbance range (Absorbance spectra) was “absorbed in the blue range of the visible spectrum” and the HDAC isoform selectivity (HDAC1-3) was “HDAC1/2-selective”. For the same molecule, the “change of inhibitory activity” value (HDAC1-3) was “Significantly increased activity”.

With `CN(C)c1ccc(N=Nc2ccc(C(=O)Nc3ccccc3O)cc2)cc1` [BG49, 4-((4-(dimethylamino)phenyl)diazenyl)-N-(2-hydroxyphenyl)benzamides] the “inhibition of HDAC3 enzymatic activity” value (HDAC3) was “not targeted” and the “hyperacetylation of H3K9 relative to DMSO control” value [2] was “statistically significant induced hyperacetylation of H3K9 relative to DMSO control was observed only following light exposure”.

For `CC(=O)Nc1ccc(C(=O)Nc2ccccc2N)cc1` [CI-994, reference compound], the “inhibition of HDAC3 enzymatic activity” value (HDAC3) was “no differential activity” and the “change of inhibitory activity” value (HDAC1-3) was “no differential activity”.

In the case of `CN(C)c1ccc(N=Nc2ccc(C(=O)O)cc2)cc1` [DABCYL], the “thermal relaxation faster than previous measurements in chloroform” value [3] was “approximately 120 ×”.

For `Nc1ccccc1NC(=O)c1ccc(CNC(=O)OCc2cccnc2)cc1` [MS-275], the “activity change as a function” value (HDAC enzyme) was “Only compound BG14 shows increased activity with increased exposure time”.

With `O=C(CCCCCCC(=O)Nc1ccccc1)NO` [SAHA] the “activity change as a function” value (HDAC enzyme) was “Only compound BG14 shows increased activity with increased exposure time”.
